Reference: patent US5547980A, “Bicyclic sulfones, processes for their production and pharmaceutical agents containing them” (Boehringer Mannheim GmbH, priority 1991, dated 1996)
Structures can show the parent of a compound that is named as a salt.

Test system: passively sensitized guinea-pig lung parenchymal strips
Assay: Inhibition of the antigen-induced constriction of passively sensitized guinea-pig lung parenchymal strips in vitro (organ bath)
Assay type: cell-based, guinea-pig (Pirbright-White)
Conditions: Cavia porcellus, ovalbumin 0.1 μg/ml, 20 min/37° C. preincubation time (organ bath technique); for inhibition at 20 µg/mL: 20 μg/ml
Protocol: Inhibition of the antigen-induced constriction of passively sensitized guinea-pig - lung parenchymal - strips in vitro (organ bath) For the in vitro examination of the compounds according to the invention, the inhibition of the antigen-induced constriction of passively sensitized guinea-pig lung parenchymal strips was measured as described in the following: Pirbright-White guinea-pigs were stunned by a blow on the neck and exsanguinated. The lungs were rinsed substantially free of blood in situ using Krebs buffer, pH 7.4. Subsequently the lung was excised, cut into strips (ca. 20×4×4 mm) and the strips were passively sensitized for one hour at room temperature with a 1:50 dilution of a homologous anti-ovalbumin antiserum and then washed once with Krebs buffer. The antiserum had previously been produced in guinea-pigs of the same strain according to […] (1) by repeated injection of ovalbumin (2×crystallized) with addition of complete Freund's adjuvant. The antiserum was stored undiluted at -18° C. until use. Subsequently the lung strips were suspended individually in 10 ml water baths on an isometric measuring recorder with an initial tension of 1.2 g. Afterwards the baths were filled with Krebs buffer and gassed continuously at 37° C. with O2 (95%) and CO2 (5%). The constrictions of the lung strips were recorded via an amplifier on a recorder. […] The inhibitory effects of the compounds according to the invention were expressed as percentage reduction of the constriction amplitudes of the "samples with test substance" in relation to the "untreated control constrictions". (1) […]. Johnstone Quantitative studies on anaphylaxis in guinea-pigs passively sensitized with homologous antibody. Inter. Arch. Allergy 41, 648-454 (1971) |% inhibition of the ovalbumin (0.1 μg/ml) induced |constriction of passively sensitized lung parenchymal strips |(guinea-pig) |20 min/37° C. preincubation time (organ bath technique)

Work on Cn1c(=O)c2[nH]cnc2n(C)c1=O [aminophylline, reference compound] yielded an inhibition at 200 µg/mL (200 μg/ml (footnote *)) of 26%.
CCN(CC)CC1=Cc2cc(Cl)c(Cl)cc2S1(=O)=O [Example 6, 5,6-dichloro-2-(N,N-diethylamino-methyl)benzo[b]-thiophene-1,1-dioxide-hydrochloride] was tested, and the inhibition at 20 µg/mL was 51%.
O=S1(=O)CC(N2CCCC2)C(N2CCCC2)c2ccc(Cl)cc21 (stereo not drawn) [3a), 7-chloro-3,4-bis-pyrrolidino-benzo[b]thian-1,1-dioxide] gave an inhibition at 20 µg/mL of 25%.
Work on CCN(CC)CC1=Cc2ccc(Cl)cc2S1(=O)=O [Example 1, 6-chloro-2-(N,N-diethylamino-methyl)benzo[b]thiophene-1,1 dioxide] yielded an inhibition at 20 µg/mL of 53%.
For CCCCNC1CS(=O)(=O)c2cc(Cl)ccc2C1NCCCC (stereo not drawn) [Example 5l), 7-chloro-3,4-bis-n-butyl-amino-benzo[b]thian-1,1-dioxide-dihydrochloride], the inhibition at 20 µg/mL was 25%.
CCN(CC)CC1=Cc2ccc(Cl)c(Cl)c2S1(=O)=O [Example 7, 6,7-dichloro-2-(N,N-diethylamino-methyl)benzo[b]thiophene-1,1-dioxide-hydrochloride] showed an inhibition at 20 µg/mL of 88%.
